Data as given in patent publication US20260115331A1, “PET IMAGING OF BACTERIAL INFECTION WITH A PET PROBE” (Mayo Foundation for Medical Education and Research, priority 2022, published 2026).

Legend:
[1] = system: Klebsiella pneumoniae (K. pneumoniae); assay: Ex vivo biodistribution in osteomyelitis foreign body rat model with K. pneumoniae infection vs inflammation model; set-up: species or system rats; details: 120 minutes post-injection, comparable SUVs except bladder and feces (FIG. 34)
Procedure: (§1) The acquired PET images were visualized and analyzed for quantifying standardized uptake value (SUV) using image analysis software—MIM 7 software and PMOD. Following final imaging at 120 minutes post-injection, the animal was euthanized, and major organs and infected and inflamed tibia were extracted for gamma counting for ex-vivo biodistribution analysis (see FIG. 22). At the end of last imaging session, rats were euthanized by cardiectomy, and the operated tibia with K-wire or contralateral tibia were aseptically removed. Following removal, tibias were weighed, and Ga-68 radioactivity was counted in 2480 Wizard2 automatic gamma counter for ex-vivo biodistribution assessment. The tibias were then frozen to −80° C. The frozen tibia from each animal was crushed aseptically using a bone pulverizer chilled at −80° C. The crushed tibia without K wire was weighed and vortexed in 1 mL sterile saline. The K wire was also vortexed in 1.0 mL sterile saline separately. The vortexed tibia and K-wire saline suspension were sonicated for 5 minutes. After sonication, 1:10 serial dilutions were prepared in saline and 0.1 mL of each dilution was plated in Trypticase Soy Agar plates with 5% Sheep Blood (TSA II). After 24 hours of incubation at 37° C., the bacterial cultures in tibia suspension and K-wire suspension were quantified. […]

E coli = assay: Biodistribution in lung infected mice (E. coli) at 120 min post injection; format: in vivo
[2] = PET/CT image analysis (SUV) in normal rat model; format: in vivo, rats; details: for SUV (Average ± SD), Normal Tibia: Normal group
Procedure: The PET probe [^68Ga]Ga-H3P2O8 was evaluated in methicillin-resistant S. aureus (MRSA) foreign-body osteomyelitis in the left tibia with a stainless steel Kirschner wire (K-wire) implant in male Wister rats, following a previously established protocol [Ref. 17]. Briefly, a 1 cm incision was made on the medial tibia and the bone exposed. A 1.5 mm hole was drilled, 0.01 mL of arachidonic acid (a sclerosing agent) and 0.05 mL of a suspension containing MRSA DRL-6169 at 10^8 cfu/mL was injected into the bone. A 5 mm threaded stainless-steel K-wire was inserted. The hole was closed with dental gypsum and the site closed. After implantation, the muscle and fascia were closed with 3-0 vicryl using simple interrupted sutures. The skin was closed with sterile wound clips and VetBond. The wound was sprayed with Aluspray and Chew Guard. After 7 days of implantation of wire, the animal was put on iron-deficient diet for 7 days and on the day of imaging, the animals were fasted for 4 hours prior to the injection of the PET probe. [^68Ga]Ga-H3P2O8 (32.81±6.28 MBq, n=18) were injected into the rat model via tail vein injection. The rat model was either a normal rat model or an osteomyelitis foreign body rat model or an inflamed foreign body rat model. PET/CT images were acquired at 15 minutes, 30 minutes, 60 minutes, and 120 minutes post-injection using Siemens Inveon MicroPET/CT Scanner (see FIGS. 17, 18, and Table 2).
The acquired PET images were visualized and analyzed for quantifying standardized uptake value (SUV) using image analysis software—MIM 7 software and PMOD. Following final imaging at 120 minutes post-injection, the animal was euthanized, and major organs and infected and inflamed tibia were extracted for gamma counting for ex-vivo biodistribution analysis (see FIG. 22). At the end of last imaging session, rats were euthanized by cardiectomy, and the operated tibia with K-wire or contralateral tibia were aseptically removed. Following removal, tibias were weighed, and Ga-68 radioactivity was counted in 2480 Wizard2 automatic gamma counter for ex-vivo biodistribution assessment. The tibias were then frozen to −80° C. The frozen tibia from each animal was crushed aseptically using a bone pulverizer chilled at −80° C. The crushed tibia without K wire was weighed and vortexed in 1 mL sterile saline. The K wire was also vortexed in 1.0 mL sterile saline separately. The vortexed tibia and K-wire saline suspension were sonicated for 5 minutes. After sonication, 1:10 serial dilutions were prepared in saline and 0.1 mL of each dilution was plated in Trypticase Soy Agar plates with 5% Sheep Blood (TSA II). After 24 hours of incubation at 37° C., the bacterial cultures in tibia suspension and K-wire suspension were quantified. In the 2-week-old osteomyelitis model used in the study, the infected tibia contained 7.00±0.19 log10 cfu/g tibia (n=10) and 5.41±0.40 log10 cfu/K-wire (n=10).

[3] = system: Pseudomonas aeruginosa (P. aeruginosa); assay: Ex vivo biodistribution in osteomyelitis foreign body rat model with P. aeruginosa infection vs inflammation model; set-up: species or system rats; details: 120 minutes post-injection, comparable SUVs except bladder and feces (FIG. 35)
Procedure: as §1

[4] = Biodistribution in normal mice at 120 min post injection; format: in vivo; details: N = 5, 120 min post injection
Text: The feasibility of the developed PET probe [^68Ga]Ga-H3P2O8 in a mouse model of thigh infection as well as uptake in E. coli has been evaluated. […] The biodistribution of developed PET probe in normal and in thigh infected mice has been assessed (see FIG. 11). […] Micro-PET imaging of normal and thigh-infected mice has also been performed. The site of bacterial infection was evident on micro-PET images (see FIG. 13) with arrows in contrast to the non-infected group of mice. The bacterial site of infection on micro-PET images was confirmed by bacterial culture performed on the biopsied sample. Micro-PET imaging was performed at different time intervals to optimize imaging time.

[5] = system: Methicillin-resistant Staphylococcus aureus (MRSA); format: in vivo, rats; details: PET image analysis, p<0.05 (FIG. 30)
[6] = n = 3, 2 h post infection with E coli

## O=P(O)(O)[O][Ga]1[O]P(=O)(O)[O]1 [[^68Ga]Ga-H3P2O8, [^68Ga]Ga-hydrogen bisphosphate]
[1]
  distribution in organs/excrement of infected model compared with inflammation model: similar
E coli; [6]
  SUV ± STD, Adipose: 0.85 ± 0.64 SUV
  SUV ± STD, Bladder: 3.11 ± 2.62 SUV
  SUV ± STD, Blood: 2.09 ± 1.31 SUV
  SUV ± STD, Bone: 2.70 ± 0.43 SUV
  SUV ± STD, Brain: 0.05 ± 0.01 SUV
  SUV ± STD, Cecum: 1.61 ± 1.29 SUV
  SUV ± STD, Eye: 1.42 ± 1.91 SUV
  SUV ± STD, Feces: 1.39 ± 1.10 SUV
  SUV ± STD, Gut: 1.93 ± 0.40 SUV
  SUV ± STD, Heart: 0.73 ± 0.07 SUV
  SUV ± STD, Kidney-1: 0.92 ± 0.24 SUV
  SUV ± STD, Kidney-2: 1.10 ± 0.09 SUV
  SUV ± STD, Liver: 0.86 ± 0.08 SUV
  SUV ± STD, Lung-1: 2.98 ± 1.02 SUV
  SUV ± STD, Lung-2: 2.56 ± 1.82 SUV
  SUV ± STD, Normal Thigh: 0.31 ± 0.18 SUV
  SUV ± STD, Skin: 1.46 ± 0.41 SUV
  SUV ± STD, Spleen: 0.73 ± 0.03 SUV
  SUV ± STD, Stomach: 0.46 ± 0.07 SUV
E coli; n = 4, 24 h post infection
  SUV ± STD, Adipose: 1.13 ± 0.34 SUV
  SUV ± STD, Bladder: 4.04 ± 5.22 SUV
  SUV ± STD, Blood: 2.75 ± 0.39 SUV
  SUV ± STD, Bone: 2.65 ± 1.75 SUV
  SUV ± STD, Brain: 0.11 ± 0.02 SUV
  SUV ± STD, Cecum: 1.59 ± 0.35 SUV
  SUV ± STD, Eye: 1.39 ± 1.17 SUV
  SUV ± STD, Feces: 0.71 ± 0.24 SUV
  SUV ± STD, Gut: 1.72 ± 0.31 SUV
  SUV ± STD, Heart: 1.04 ± 0.28 SUV
  SUV ± STD, Kidney-1: 1.69 ± 0.66 SUV
  SUV ± STD, Kidney-2: 1.44 ± 0.37 SUV
  SUV ± STD, Liver: 1.89 ± 0.47 SUV
  SUV ± STD, Lung-1: 1.52 ± 0.29 SUV
  SUV ± STD, Lung-2: 1.46 ± 0.51 SUV
  SUV ± STD, Normal Thigh: 0.33 ± 0.16 SUV
  SUV ± STD, Skin: 1.08 ± 0.42 SUV
  SUV ± STD, Spleen: 1.75 ± 0.56 SUV
  SUV ± STD, Stomach: 0.34 ± 0.13 SUV
[2]; n = 4, 15 min post-injection
  SUV (Average ± SD), Normal Tibia: 0.76 ± 0.03 SUV
  SUV (Average ± SD), Muscle in Normal group: 0.35 ± 0.10 SUV
[2]; n = 4, 30 min post-injection
  SUV (Average ± SD), Normal Tibia: 0.76 ± 0.09 SUV
  SUV (Average ± SD), Muscle in Normal group: 0.50 ± 0.12 SUV
[2]; n = 4, 60 min post-injection
  SUV (Average ± SD), Normal Tibia: 0.80 ± 0.09 SUV
  SUV (Average ± SD), Muscle in Normal group: 0.49 ± 0.10 SUV
[2]; n = 4, 120 min post-injection
  SUV (Average ± SD), Normal Tibia: 0.89 ± 0.16 SUV
  SUV (Average ± SD), Muscle in Normal group: 0.48 ± 0.09 SUV
[3]
  distribution in organs/excrement of infected model compared with inflammation model: similar
[4]; Adipose
  SUV ± STD, Adipose: 0.76 ± 0.38 SUV
[4]; Bladder
  SUV ± STD, Bladder: 2.41 ± 2.84 SUV
[4]; Blood
  SUV ± STD, Blood: 2.76 ± 0.97 SUV
[4]; Bone
  SUV ± STD, Bone: 1.88 ± 1.26 SUV
[4]; Brain
  SUV ± STD, Brain: 0.07 ± 0.02 SUV
[4]; Cecum
  SUV ± STD, Cecum: 1.33 ± 0.60 SUV
[4]; Eye
  SUV ± STD, Eye: 2.30 ± 1.41 SUV
[4]; Feces
  SUV ± STD, Feces: 0.82 ± 0.28 SUV
[4]; Gut
  SUV ± STD, Gut: 1.15 ± 0.29 SUV
[4]; Heart
  SUV ± STD, Heart: 0.87 ± 0.30 SUV
[4]; Kidney-1
  SUV ± STD, Kidney-1: 1.11 ± 0.29 SUV
[4]; Kidney-2
  SUV ± STD, Kidney-2: 0.71 ± 0.20 SUV
[4]; Liver
  SUV ± STD, Liver: 1.05 ± 0.42 SUV
[4]; Lung-1
  SUV ± STD, Lung-1: 2.17 ± 0.85 SUV
[4]; Lung-2
  SUV ± STD, Lung-2: 3.22 ± 2.29 SUV
[4]; Normal Thigh
  SUV ± STD, Normal Thigh: 0.52 ± 0.23 SUV
[4]; Skin
  SUV ± STD, Skin: 0.71 ± 0.38 SUV
[4]; Spleen
  SUV ± STD, Spleen: 0.70 ± 0.16 SUV
[4]; Stomach
  SUV ± STD, Stomach: 0.49 ± 0.24 SUV
[5]
  mean SUV for MRSA-infected animal compared with animals infected with K. pneumoniae or P. aeruginosa: significantly higher
